Values of other authors in patent US20200236925A1, “METHODS AND FORMULATIONS FOR PREVENTING DOWNWARD MIGRATION OF AGRICULTURAL MATERIALS” (BAYER CROPSCIENCE LP, priority 2019, published 2020).

Assays:
hybrid bermudagrass [1] = conditions: 35 or 52 g ha-1, fall or spring treatments
hybrid bermudagrass [2] = conditions: application rate increased from 35 to 53 g ha-1; SOC ≤0.3% w w-1

Cc1ccc2c(c1)[C@H](Nc1nc(N)nc(C(C)F)n1)[C@@H](C)C2 (mixture of isomers) [indaziflam, N2-[(1R,2S)-2,3-dihydro-2,6-dimethyl-1H-inden-1-yl]-6-[(1RS)-1-fluoroethyl]-1,3,5-triazine-2,4-diamine]
hybrid bermudagrass root strength vs nontreated (hybrid bermudagrass [1]): no differences in hybrid bermudagrass root strength | increase of hybrid bermudagrass injury (hybrid bermudagrass [2]): > 10 fold | solubility in distilled water (distilled water): 2.8 µg/mL | field-T1/2 (field persistence): > 150 days | aqueous solubility (Ks) (pH 7): 2.4 µg/mL
